Consider 6 molecules from patent US11517587B2, “Drug therapy to inhibit chemotherapy-induced adverse effects and related pharmaceutical compositions, diagnostics, screening techniques and kits” (YALE UNIVERSITY, priority 2011, dated 2022).

The test system of series [1] is lung cancer cell line (H1975). Kind of series: Xenograft tumor volume in nude mice. The class given is in vivo. As to conditions: LiCl in the presence of Taxol treatment, short time after initiation of co-therapy. The procedure:
FIG. 4B: tumor volume effect.
One or more murine models as described in Richmond, et al., Mouse xenograft models vs GEM models for human cancer therapeutics, Dis Model Mech. 2008 September-October; 1(2-3): 78-82, are prepared. As explained by Richmond, et al., “[t]hese models are used to investigate the factors involved in malignant transformation, invasion and metastasis, as well as to examine response to therapy. One of the most widely used models is the human tumor xenograft. […] For example, the xenograft will be readily accepted by athymic nude mice, severely compromised immunodeficient (SCID) mice, or other immunocompromised mice (Morton and Houghton, 2007). Depending upon the number of cells injected, or the size of the tumor transplanted, the tumor will develop over 1-8 weeks (or in some instances 1-4 months, or longer), and the response to appropriate therapeutic regimes can be studied in vivo.”
Pursuant to the above protocol, a lung cancer cell line (H1975) was injected into nude mice; after two weeks tumors were large enough to measure. Exemplary dosages for use in the above murine models include 25 mg/kg taxol injected 1 time per week (2×), lithium (12.8 mg/kg) injected 1 hour prior to paclitaxel injection. Protection of NCS-1 levels and intracellular Ca^2+ signals in cells is evaluated using techniques as described in Examples 1-3.

Series [2] concerns NCS-1. Put plainly: NCS-1 levels by Western blot in Taxol-treated SHSY-5Y neuroblastoma cells. The series is classed as cell-based.
Source text: (§1) Data shown are the average of three experiments.
as §1
More specifically, AV411 (ibudilast) is a drug used in several Asian countries for treatment of bronchial asthma, cerebrovascular disorders, post-stroke dizziness, and ocular allergies. In accordance with the Materials and Methods section of PNAS, Jun.
as §1

The subject of series [3] is SHSY-5Y cells. Kind of series: Intracellular Ca2+ signal in stimulated SHSY-5Y cells. The class given is cell-based. The protocol: FIG. 2A: Protection of the intracellular calcium signal by 1 uM AV411. […] After 200 seconds thapsigargin (TG, an inhibitor of the intracellular Ca^2+ pump) was added to indicate that the intracellular stores were filled and the cells were viable (second arrow). […] Each line represents the average of at least 45 cells (at least 15 cells measured in three separate experiments).
FIG. 2B: Protection of the intracellular calcium signal by 500 uM LiCl. Representative Ca^2+ responses of SHSY-5Y cells stimulated with 200 nM carbachol (at first arrow) to induce a transient release of Ca^2+ from intracellular stores. After 200 seconds thapsigargin (TG, an inhibitor of the intracellular Ca^2+ pump) was added to indicate that the intracellular stores were filled and the cells were viable (second arrow). […] Addition of 500 uM LiCl alone (pink trace)induced a small decrease in the Ca^2+ transient. […] Each line represents the average of at least 45 cells (at least 15 cells measured in three separate experiments.
FIG. 3B: Protection of the intracellular calcium signal by 5.0 mM LiCl. Representative Ca^2+ responses of SHSY-5Y cells treated with 800 ng/mL Taxol for 6 hours in the presence and absence of 5.0 mM. The experiment is the same as described for FIG. 2 except that 5 mM LiCl was used.
[…] After 200 seconds thapsigargin (TG, an inhibitor of the intracellular Ca^2+ pump) was added to indicate that the intracellular stores were filled and the cells were viable (second arrow). […] Each line represents the average of at least 45 cells (at least 15 cells measured in three separate experiments).
Intracellular Ca^2+ signals monitored in intact cells were also found to be reduced by treatment with Taxol for 6 hours (FIGS. 2B and 3B; compare control treatment (black trace) with Taxol treatment (blue trace) in both figures).

The target of series [4] is NCS-1 / inositol 1,4,5 trisphosphate receptor (InsP3R) (Homo sapiens, UniProt P62166). Kind of series: NCS-1 binding to the InsP3R. From the text:
Based upon our observations regarding the activity of lithium carbonate, valproic acid, and chlorpromazine, we believe that there are additional drugs in these classes that will have the desired effect of preventing chemotherapy-induced polyneuropathy such as, but not limited to, […].

The subject of series [5] is NCS-1. Kind of series: NCS-1 levels in peripheral nerve and brain after low dose paclitaxel. The class given is in vivo, mice. From the text:
FIG. 12: Low dose paclitaxel decreases NCS-1 levels in peripheral nerve, but not brain NCS-1 expression is maintained with lithium.

Series [6] concerns microtubule assembly. Kind of series: Microtubule assembly. The series is classed as biochemical. The protocol: FIG. 5: Paclitaxel speeds up microtubule assembly.
The relative effects of paclitaxel-LiCl and paclitaxel-AV411 co-administration on microtubule assembly were also determined.

In series [7] the test system is calcium release. Put plainly: Calcium release after low dose paclitaxel. The series is classed as in vivo, mice. Particulars: low doses of paclitaxel. From the text:
FIG. 11: Low dose paclitaxel decreases calcium release Lithium treatment prevents loss of calcium release.

For series [8], the system named is mice. Kind of series: Paclitaxel-induced myelin damage in mice. The class given is in vivo. As to conditions: paclitaxel-treated mice without Li-cotherapy.
The test system of series [9] is calpain. Kind of series: Calpain activity after low dose paclitaxel. The series is classed as in vivo, mice. From the text: FIG. 3: Low dose paclitaxel increases calpain activity. Lithium treatment prevents activation of calpain.
In series [10] the target is NCS-1 (Homo sapiens, UniProt P62166). Kind of series: Tryptophan fluorescence binding to NCS-1.
Series [11] has as its system mice. Kind of series: Echocardiograms of mice injected with taxol. The series is classed as in vivo. From the text: FIG. 5B: The bottom three panels of the figure attached, is from echocardiograms done on mice injected with taxol. These are the same mice for which the xenograph study was done (shown at the top of the figure). […] These are both measurements of contractility. […] Heart rate was not altered.
Taxol causes cardiac arrhythmias. […] The recent data shown in the bottom three panels of the FIG. 5B, is information compiled from echocardiograms done on mice injected with taxol. These are the same mice upon which the xenograph study was done (shown at the top of the figure). […] These are both measurements of contractility, which was reversed by lithium pre-treatment. […] Heart rate was not altered. The cardiologist who performed the experiment at the request of the inventor(s) was quite impressed and is considering studies in human patients. There are studies in the literature showing that chemotherapy induced changes acutely in contractility can develop into long term heart rhythm problems.

The subject of series [12] is calcium signaling in cells. Put plainly: Protection of calcium signaling by combination treatment / calpastatin expression. The series is classed as cell-based. Particulars: combination treatment with Li and calpastatin (expression of calpastatin in cells). From the text: FIG. 7: Combination treatment protects calcium signaling.
FIG. 8: Expression of calpastatin, a natural calpain antagonist, protects calcium signaling in cells.

Sequence of NCS-1 / inositol 1,4,5 trisphosphate receptor (InsP3R) (P62166 2-190 limits assumed, species assumed): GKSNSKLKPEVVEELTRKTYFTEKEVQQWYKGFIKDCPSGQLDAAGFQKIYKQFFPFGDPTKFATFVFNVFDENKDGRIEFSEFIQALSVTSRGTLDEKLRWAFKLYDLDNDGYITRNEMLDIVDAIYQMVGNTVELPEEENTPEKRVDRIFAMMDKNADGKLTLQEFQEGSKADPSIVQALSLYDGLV
Sequence of NCS-1 (Homo sapiens, UniProt P62166) (P62166 whole entry, species assumed): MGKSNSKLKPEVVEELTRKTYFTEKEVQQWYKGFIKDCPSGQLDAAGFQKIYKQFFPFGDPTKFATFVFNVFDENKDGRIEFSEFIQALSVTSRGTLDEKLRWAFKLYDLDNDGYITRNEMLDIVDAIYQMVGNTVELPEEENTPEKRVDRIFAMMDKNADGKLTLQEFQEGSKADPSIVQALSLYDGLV

Consider `[Cl-].[Li+]` [LiCl, lithium chloride], for which the Tumor volume result in series [1] is recorded as “statistically significant decrease in tumor volume”. Besides, the “NCS-1 levels (Western blot)” value in series [2] (500 uM and 5.0 mM LiCl in the presence of Taxol, 6 hours, SHSY-5Y) is given as “protected from the Taxol-induced degradation of NCS-1”; in series [2] (LiCl alone (500 uM, 5.0 mM)), “did not reduce NCS-1 levels”. The “Intracellular Ca2+ signals” value in series [3] (500 uM or 5.0 mM LiCl in the presence of Taxol) was “signals similar to that of non-treated cells”; in series [3] (LiCl alone), “decreased the intracellular signals, but not to the extent seen with Taxol treatment”.

In the case of `CN(C)CCCN1c2ccccc2Sc2ccc(Cl)cc21` [chlorpromazine], the “NCS-1 binding to InsP3R” value in series [4] is “prevent neuronal calcium sensor 1 (NCS-1) from binding to the inositol 1,4,5 trisphosphate receptor (InsP3R)”.

With `O=C([O-])[O-].[Li+].[Li+]` [lithium carbonate], the “NCS-1 binding to InsP3R” value in series [4] was “prevent neuronal calcium sensor 1 (NCS-1) from binding to the inositol 1,4,5 trisphosphate receptor (InsP3R)”.

Take `CC(=O)O[C@H]1C(=O)[C@@]2(C)[C@H]([C@H](OC(=O)c3ccccc3)[C@]3(O)C[C@H](OC(=O)[C@H](O)[C@@H](NC(=O)c4ccccc4)c4ccccc4)C(C)=C1C3(C)C)[C@]1(OC(C)=O)CO[C@@H]1C[C@@H]2O` [paclitaxel]: in [5], the “NCS-1 levels in peripheral nerve and brain” value is on record as “decreased NCS-1 levels in peripheral nerve, but not in the brain”. Besides, in series [6], the Microtubule assembly entry is listed as “accelerates microtubule assembly”. The Calcium release result in series [7] is recorded as “decreased calcium release”. For the same molecule, the “NCS-1 levels (Western blot)” value in series [2] (paclitaxel (Taxol) alone, 800 ng/mL, 6 hours) is given as “decreased NCS-1 levels”; in series [2] (paclitaxel (Taxol) alone, 800 ng/mL, 6 hours, listed as Taxol), “NCS-1 degradation”. Further, in series [3] (Taxol 800 ng/mL for 6 hours, stimulated with 1 uM ATP), the “Ca2+ response” value is “response lower in amplitude than non-treated cells”. The “Intracellular Ca2+ signals” value in [3] (Taxol for 6 hours, 200 nM carbachol) is recorded as “reduced”. Besides, the Myelin damage entry in series [8] was “evident myelin damage enlarged structures”. In [9], the Calpain activity entry is “increased calpain activity”. The “Binding to NCS-1” value in series [10] is recorded as “binds to NCS-1”. The “End diastolic diameter and fractional shortening (contractility)” value in series [11] (1 hour after taxol injection) was “end diastolic diameter and fractional shortening were altered”. The Heart rate result in series [11] (after taxol injection) is recorded as “not altered”.

Turning to `CCCC(CCC)C(=O)O` [valproic acid], in series [4], the “NCS-1 binding to InsP3R” value is recorded as “prevent neuronal calcium sensor 1 (NCS-1) from binding to the inositol 1,4,5 trisphosphate receptor (InsP3R)”.

B1: calpastatin: a natural calpain antagonist, expressed in cells (protein, UniProt P20810 1-708, looked up)
Calpastatin: MNPTETKAIPVSQQMEGPHLPNKKKHKKQAVKTEPEKKSQSTKLSVVHEKKSQEGKPKEHTEPKSLPKQASDTGSNDAHNKKAVSRSAEQQPSEKSTEPKTKPQDMISAGGESVAGITAISGKPGDKKKEKKSLTPAVPVESKPDKPSGKSGMDAALDDLIDTLGGPEETEEENTTYTGPEVSDPMSSTYIEELGKREVTIPPKYRELLAKKEGITGPPADSSKPIGPDDAIDALSSDFTCGSPTAAGKKTEKEESTEVLKAQSAGTVRSAAPPQEKKRKVEKDTMSDQALEALSASLGTRQAEPELDLRSIKEVDEAKAKEEKLEKCGEDDETIPSEYRLKPATDKDGKPLLPEPEEKPKPRSESELIDELSEDFDRSECKEKPSKPTEKTEESKAAAPAPVSEAVCRTSMCSIQSAPPEPATLKGTVPDDAVEALADSLGKKEADPEDGKPVMDKVKEKAKEEDREKLGEKEETIPPDYRLEEVKDKDGKPLLPKESKEQLPPMSEDFLLDALSEDFSGPQNASSLKFEDAKLAAAISEVVSQTPASTTQAGAPPRDTSQSDKDLDDALDKLSDSLGQRQPDPDENKPMEDKVKEKAKAEHRDKLGERDDTIPPEYRHLLDDNGQDKPVKPPTKKSEDSKKPADDQDPIDALSGDLDSCPSTTETSQNTAKDKCKKAASSSKAPKNGGKAKDSAKTTEETSKPKDD
Take B1: the Calcium signaling result in series [12] is “protected calcium signaling”.
